These molecules were tested against human GCGR (Homo sapiens (Human), UniProt P47871) (assay: Cellular functional assay, cAMP readout (glucagon-stimulated cAMP in HEK293 cells expressing human GCGR)). Settings: hGluc-1 HEK cells, LANCE TR-FRET, IC50 converted to Ki, average if tested more than once.
Assay type: cell-based
Procedure: IC50 Values in Cellular Functional Assays: cAMP Readout
Full-length human GCGR (Accession Number: NM000160) subcloned into pcDNA3.1 was stably transfected into HEK293 cells (hGluc-1 HEK) and maintained under G418 selection (500 μg/mL). Cell cultures were maintained in DMEM/F12 media supplemented with 10% FBS and 1% GlutaMax. Glucagon stimulated cAMP was quantified using LANCE technology as per manufacturer instructions. On the day of the experiment, spent media was removed and cells were washed with Hank's Buffered Saline solution (HBSS) and cells were harvested with non-enzymatic cell dissociation solution, then washed once with HBSS. Cells were re-suspended in stimulation buffer at a concentration of 0.83×10^6 cells/ml and cAMP detection antibody was added. 6 μl/well of this solution was then dispensed in a 384 well plate (cell density 5000 cells/well). Test compound was serially diluted in DMSO and 50 nl were dispensed on top of the cell solution and allowed to incubate for 30 minutes. 6 μl of a 2× glucagon solution (final concentration in assay […]) was then added and the reaction was terminated after 5 minutes with the addition of detection mix. The mixture was incubated, protected from light for 1.5 h. cAMP levels were quantified by TR-FRET in an EnVision instrument against a known standard. IC50's were generated by using a non-linear regression macro driven in Excel and converted to K, values.

human GCGR, sequence (P47871 26-477): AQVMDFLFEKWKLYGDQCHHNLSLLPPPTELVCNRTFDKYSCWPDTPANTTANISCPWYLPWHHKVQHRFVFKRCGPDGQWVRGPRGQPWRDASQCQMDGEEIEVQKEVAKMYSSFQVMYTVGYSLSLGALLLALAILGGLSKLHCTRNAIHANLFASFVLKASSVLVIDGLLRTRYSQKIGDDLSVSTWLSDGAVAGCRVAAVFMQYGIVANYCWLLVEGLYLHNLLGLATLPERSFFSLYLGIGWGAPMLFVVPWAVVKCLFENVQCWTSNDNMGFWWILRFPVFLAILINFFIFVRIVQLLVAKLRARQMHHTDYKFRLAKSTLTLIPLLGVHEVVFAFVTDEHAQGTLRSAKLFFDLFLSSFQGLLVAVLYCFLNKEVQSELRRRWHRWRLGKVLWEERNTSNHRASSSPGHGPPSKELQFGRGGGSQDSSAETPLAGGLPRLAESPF

Question: For O=C(O)CCNC(=O)c1ccc(-c2cc(Cl)ccc2CNc2ccc(-c3ccc(F)c(Cl)c3)cc2)cn1 [Compound 150, 3-(5-(5-chloro-2-(((3′-chloro-4′-fluoro-[1,1′-biphenyl]-4-yl)amino)methyl)phenyl)picolinamido)propanoic acid], which Ki is on record?
Answer: 73.3 nM

Question: For O=C(O)CCNC(=O)c1ccc(-c2ccccc2CNc2ccc(-c3ccc(C(F)(F)F)cc3)cc2)cn1 [Compound 9], which Ki is on record?
Answer: 550 nM

Question: Cc1cc(-c2ccc(NCc3ccc(Cl)cc3-c3ccc(C(=O)NCCC(=O)O)nc3)cc2)ccc1F [Compound 146, 3-(5-(5-chloro-2-(((4′-fluoro-3′-methyl-[1,1′-biphenyl]-4-yl)amino)methyl)phenyl)picolinamido)propanoic acid] was tested. Which Ki did it give?
Answer: 268 nM

Question: For Cc1cc(Cl)ccc1-c1ccc(NCc2c(C)cc(C(F)(F)F)cc2-c2ccc(C(=O)NCCC(=O)O)nc2)cc1Cl [Compound 165, 3-(5-(2-(((2,4′-dichloro-2′-methyl-[1,1′-biphenyl]-4-yl)amino)methyl)-3-methyl-5-(trifluoromethyl)phenyl)picolinamido)propanoic acid], which Ki is on record?
Answer: 6.4 nM

Question: How did the Ki turn out when Cc1cc(C(F)(F)F)cc(-c2ccc(C(=O)NCCC(=O)O)nc2)c1CNc1ccc(-c2ccc(C(F)(F)F)cc2)c(Cl)c1 [Compound 163] was run?
Answer: 14.4 nM

Question: O=C(O)CCNC(=O)c1ccc(-c2cc(C(F)(F)F)cc(C(F)(F)F)c2CNc2ccc(-c3ccc(Cl)cc3Cl)cc2)cn1 [Compound 87, 3-(5-(2-(((2′,4′-dichloro-[1,1′-biphenyl]-4-yl)amino)methyl)-3,5-bis(trifluoromethyl)phenyl)picolinamido)propanoic acid] was tested. Which Ki did it give?
Answer: 17.3 nM

Question: For COc1ccc(CNc2ccc(-c3ccc(Cl)cc3Cl)cc2)c(-c2ccc(C(=O)NCCC(=O)O)nc2)c1 [Compound 46, 3-(5-(2-(((2′,4′-dichloro-[1,1′-biphenyl]-4-yl)amino)methyl)-5-methoxyphenyl)picolinamido)propanoic acid], which Ki is on record?
Answer: > 20000 nM

Question: How did the Ki turn out when COc1ccc(CNc2ccc(-c3ccc(OC(F)(F)F)cc3)cc2)c(-c2ccc(C(=O)NCCC(=O)O)nc2)c1 [Compound 48, 3-(5-(5-methoxy-2-(((4′-(trifluoromethoxy)-[1,1′-biphenyl]-4-yl)amino)methyl)phenyl)picolinamido)propanoic acid] was run?
Answer: > 20000 nM

Question: Which Ki does the source give for O=C(O)CCNC(=O)c1ccc(-c2cc(C(F)(F)F)cc(C(F)(F)F)c2CNc2ccc(-c3ccc(Cl)cc3)c(Cl)c2)cn1 [Compound 76, 3-(5-(2-(((2,4′-dichloro-[1,1′-biphenyl]-4-yl)amino)methyl)-3,5-bis(trifluoromethyl)phenyl)picolinamido)propanoic acid] here?
Answer: 14.5 nM

Question: How did the Ki turn out when Cc1cc(C(F)(F)F)ccc1-c1ccc(NCc2c(-c3ccc(C(=O)NCCC(=O)O)nc3)cc(C(F)(F)F)cc2C(F)(F)F)cc1 [Compound 83, 3-(5-(2-(((2′-methyl-4′-(trifluoromethyl)-[1,1′-biphenyl]-4-yl)amino)methyl)-3,5-bis(trifluoromethyl)phenyl)picolinamido)propanoic acid] was run?
Answer: 14.1 nM

Question: How did the Ki turn out when O=C(O)CCNC(=O)c1ccc(-c2cc(C(F)(F)F)ccc2CNc2ccc(-c3ccc(F)cc3F)c(C(F)(F)F)c2)cn1 [Compound 125, 3-(5-(2-(((2′,4′-difluoro-2-(trifluoromethyl)-[1,1′-biphenyl]-4-yl)amino)methyl)-5-(trifluoromethyl)phenyl)picolinamido)propanoic acid] was run?
Answer: 205 nM

Question: With O=C(O)CCNC(=O)c1ccc(-c2cc(C(F)(F)F)cc(C(F)(F)F)c2CNc2ccc(-c3c(Cl)cccc3Cl)cc2)cn1 [Compound 85, 3-(5-(2-(((2′,6′-dichloro-[1,1′-biphenyl]-4-yl)amino)methyl)-3,5-bis(trifluoromethyl)phenyl)picolinamido)propanoic acid] as the molecule, how does the Ki read?
Answer: 32.4 nM

Question: How did the Ki turn out when COc1cc(C(F)(F)F)cc(-c2ccc(C(=O)NCCC(=O)O)nc2)c1CNc1ccc(-c2ccc(C(F)(F)F)cc2)c(Cl)c1 [Compound 159, 3-(5-(2-(((2-chloro-4′-(trifluoromethyl)-[1,1′-biphenyl]-4-yl)amino)methyl)-3-methoxy-5-(trifluoromethyl)phenyl)picolinamido)propanoic acid] was run?
Answer: 45.8 nM

Question: For Cc1cc(C(F)(F)F)ccc1-c1ccc(NCc2c(-c3ccc(C(=O)NCCC(=O)O)nc3)cc(C(F)(F)F)cc2C(C)C)cc1Cl [Compound 167], which Ki is on record?
Answer: 10.8 nM

Question: How did the Ki turn out when CC(C)(C)c1ccc(-c2ccc(NCc3ccc(C(F)(F)F)cc3-c3ccc(C(=O)NCCC(=O)O)nc3)cc2C(F)(F)F)cc1 [Compound 124, 3-(5-(2-(((4′-(tert-butyl)-2-(trifluoromethyl)-[1,1′-biphenyl]-4-yl)amino)methyl)-5-(trifluoromethyl)phenyl)picolinamido)propanoic acid] was run?
Answer: 285 nM

Question: Which Ki does the source give for O=C(O)CCNC(=O)c1ccc(-c2cc(C(F)(F)F)cc(O)c2CNc2ccc(-c3ccc(Cl)cc3)c(Cl)c2)cn1 [Compound 164, 3-(5-(2-(((2,4′-dichloro-[1,1′-biphenyl]-4-yl)amino)methyl)-3-hydroxy-5-(trifluoromethyl)phenyl)picolinamido)propanoic acid] here?
Answer: 61.2 nM

Question: With COc1ccc(CNc2ccc(-c3cccc(OC(F)(F)F)c3)cc2)c(-c2ccc(C(=O)NCCC(=O)O)nc2)c1 [Compound 50, 3-(5-(5-methoxy-2-(((3′-(trifluoromethoxy)-[1,1′-biphenyl]-4-yl)amino)methyl)phenyl)picolinamido)propanoic acid] as the molecule, how does the Ki read?
Answer: > 20000 nM

Question: How did the Ki turn out when Cc1cc(C(F)(F)F)ccc1-c1ccc(NCc2ccc(C(F)(F)F)cc2-c2ccc(C(=O)NCCC(=O)O)nc2)cc1C(F)(F)F [Compound 120, 3-(5-(2-(((2′-methyl-2,4′-bis(trifluoromethyl)-[1,1′-biphenyl]-4-yl)amino)methyl)-5-(trifluoromethyl)phenyl)picolinamido)propanoic acid] was run?
Answer: 37.4 nM

Question: With Cc1cc(Cl)ccc1-c1ccc(NCc2c(-c3ccc(C(=O)NCCC(=O)O)nc3)cc(C(F)(F)F)cc2C(F)(F)F)cc1 [Compound 81, 3-(5-(2-(((4′-chloro-2′-methyl-[1,1′-biphenyl]-4-yl)amino)methyl)-3,5-bis(trifluoromethyl)phenyl)picolinamido)propanoic acid] as the molecule, how does the Ki read?
Answer: 10 nM

Question: With COc1ccc(CNc2ccc(-c3ccc(C(C)(C)C)cc3)cc2)c(-c2ccc(C(=O)NCCC(=O)O)nc2)c1 [Compound 49, 3-(5-(2-(((4′-(tert-butyl)-[1,1′-biphenyl]-4-yl)amino)methyl)-5-methoxyphenyl)picolinamido)propanoic acid] as the molecule, how does the Ki read?
Answer: > 20000 nM

Question: For N#Cc1cc(NCc2ccc(Cl)cc2-c2ccc(C(=O)NCCC(=O)O)nc2)ccc1-c1ccc(Cl)c(C(F)(F)F)c1 [Compound 98, 3-(5-(5-chloro-2-(((4′-chloro-2-cyano-3′-(trifluoromethyl)-[1,1′-biphenyl]-4-yl)amino)methyl)phenyl)picolinamido)propanoic acid], which Ki is on record?
Answer: 195 nM

Question: With Cc1cc(C(F)(F)F)ccc1-c1ccc(NCc2c(C)cc(C(F)(F)F)cc2-c2ccc(C(=O)NCCC(=O)O)nc2)cc1Cl [Compound 166, 3-(5-(2-(((2-chloro-2′-methyl-4′-(trifluoromethyl)-[1,1′-biphenyl]-4-yl)amino)methyl)-3-methyl-5-(trifluoromethyl)phenyl)picolinamido)propanoic acid] as the molecule, how does the Ki read?
Answer: 8.2 nM

Question: For O=C(O)CCNC(=O)c1ccc(-c2cc(C(F)(F)F)cc(C(F)(F)F)c2CNc2ccc(-c3cccc(Cl)c3Cl)cc2)cn1 [Compound 84, 3-(5-(2-(((2′,3′-dichloro-[1,1′-biphenyl]-4-yl)amino)methyl)-3,5-bis(trifluoromethyl)phenyl)picolinamido)propanoic acid], which Ki is on record?
Answer: 36.7 nM

Question: For O=C(O)CCNC(=O)c1ccc(-c2cc(C(F)(F)F)ccc2CNc2ccc(-c3ccc(Cl)cc3C(F)(F)F)cc2)cn1 [Compound 25], which Ki is on record?
Answer: 220 nM

Each molecule was assayed against human glucagon receptor (GCGR) (Homo sapiens (Human), UniProt P47871) (assay: Inhibition of 125I-glucagon binding to membranes from HEK293 cells expressing the human glucagon receptor). Settings: membranes of hGluc-1 HEK cells, 125I-glucagon 0.3 nM, 2 hours room temperature; IC50 converted to Ki; average if tested more than once.
human glucagon receptor (GCGR), sequence (P47871 26-477): as above
Procedure: Inhibition ^125I-Glucagon Binding to Membranes from HEK293 Cells Expressing the Human Glucagon Receptor (GCGR)
Full-length human GCGR (Accession Number: NM000160) subcloned into pcDNA3.1 was stably transfected into HEK293 cells (hGluc-1 HEK) and maintained under G418 selection (500 μg/mL). Cell cultures were maintained in DMEM/F12 media supplemented with 10% FBS and 1% GlutaMax. Membranes were prepared from these cells as follows: cells were harvested from T225 flasks and re-suspended in hypotonic lysis buffer, 50 mM HEPES pH 7.4 supplemented with Complete Protease inhibitors (Boehringer Mannheim, Indianapolis, Ind.). Cells were dounced 20 times on ice and spun at 700×g to remove nuclei and unlysed cells. The resulting pellet was re-suspended in hypotonic lysis buffer and the above step was repeated. Supernatants from the low speed centrifugation were combined and subsequently spun at 100K×g for 1 hr at 4° C. and the resulting pellet was re-suspended in buffer containing 50 mM HEPES pH 7.4 and 10% sucrose and the protein concentration was adjusted at 1 mg/mL as determined in the BCA assay. Membranes were aliquoted and stored at −80° C. The binding assay was performed by a filtration method in a 384 well format. Membranes at a final protein concentration of 6 μg/well were incubated with ^125I-glucagon at 0.3 nM and in the presence of compound for 2 hours at room temperature in a total reaction volume of 40 μL per well. Assay buffer consisted of 50 mM HEPES, pH 7.4, 5 mM MgCl2, 1 mM CaCl2 and 0.2% BSA. 30 μL of the reaction was then transferred to PEI treated filter plates and followed by filter aspiration. Plates were then washed 5× and allowed to dry at room temperature overnight. The next day the bottom of the plate was covered with seal tape and scintillant was added. Total counts retained by the filters were quantified with a Top Count instrument. IC50's were generated by using a non-linear regression macro driven in Excel and converted to K's.

Question: For O=C(O)CCNC(=O)c1ccc(-c2cc(Cl)ccc2CNc2ccc(-c3ccc(F)c(Cl)c3)cc2)cn1 [Compound 150, 3-(5-(5-chloro-2-(((3′-chloro-4′-fluoro-[1,1′-biphenyl]-4-yl)amino)methyl)phenyl)picolinamido)propanoic acid], which Ki is on record?
Answer: 27.7 nM

Question: How did the Ki turn out when O=C(O)CCNC(=O)c1ccc(-c2ccccc2CNc2ccc(-c3ccc(C(F)(F)F)cc3)cc2)cn1 [Compound 9] was run?
Answer: 95.7 nM

Question: How did the Ki turn out when Cc1cc(-c2ccc(NCc3ccc(Cl)cc3-c3ccc(C(=O)NCCC(=O)O)nc3)cc2)ccc1F [Compound 146, 3-(5-(5-chloro-2-(((4′-fluoro-3′-methyl-[1,1′-biphenyl]-4-yl)amino)methyl)phenyl)picolinamido)propanoic acid] was run?
Answer: 28.1 nM
